# Source: patent US10294218B2 (VIROSTATICS SRL, priority 2012, dated 2019)
# Like-named read-outs stand apart in the source and are kept apart here.
# Experiments:
# [1] = tested on: laboratory strain of HIV-1; assay: Antiviral activity against HIV (AV), p24 in infected activated primary T cells; assay type: cell-based; conditions: for IC50: Human immunodeficiency virus 1, T-cell, read-out: AV50 (Inhibitory concentration 50% for antiviral activity); for antiviral and antiproliferative activity and cytotoxicity profile (in words): summary of AV, AP and cytotoxicity assays
# Experimental: Activated primary T cells are infected with a laboratory strain of HIV-1, then cultured and exposed to different concentrations of the test compounds. HIV replication is analysed by measuring the viral protein p24 and expressed as percentage of untreated control. Inhibition of viral replication (AV) is then calculated (AV=100 minus the % p24 compared to control, AV of control=0%). Inhibitory concentration 50% for antiviral activity (AV50) is calculated.
# (§1) In Tables 2, 3 and 4, ND means Not Determined.
# Primary T cells = assay: Antiproliferative activity (AP), mitotic index by flow cytometry; assay type: cell-based; conditions: T-cell, read-out: AP50 (Inhibitory concentration 50% for antiproliferative capacity)
# Experimental: Primary T cells are cultured and exposed to different concentrations of the test compounds. Cell proliferation is analysed by measuring mitotic index (ie the number of cell divisions a population of cells undergoes) through flow cytometry based techniques. Mitotic index is expressed as percentage of untreated control. Inhibition of cell proliferation (AP) is then calculated (AP=100 minus % mitotic index compared to control, AP of control=0%). Inhibitory concentration 50% for antiproliferative capacity (AP50) is calculated.
# as §1
SMILES,IC50 [1],"IC50 (Primary T cells; primary T cells, mitotic index)",antiviral and antiproliferative activity and cytotoxicity profile (in words) [1],IC50 (Primary T cells),"IC50 ([1]; HIV-1 infected activated primary T cells, p24)"
"COc1ccccc1-c1cc(Nc2ccc(N3CCOCC3)c(CO)c2)ncn1 [Example 19, (5-(6-(2-Methoxyphenyl)pyrimidin-4-ylamino)-2-morpholinophenyl)methanol]",1000 nM,> 500 nM,,,
"CCOc1cc(F)ccc1-c1cc(Nc2cc(C(N)=O)c(OC)cc2F)ncn1 [Example 147, 5-[6-(2-Ethoxy-4-fluoro-phenyl)-pyrimidin-4-ylamino]-4-fluoro-2-methoxy-benzamide]",5 nM,,good antiviral and antiproliferative activity and a good cytotoxicity profile,40 nM,
"COc1ccc(Nc2cc(-c3ccccc3OC)ncn2)cc1NS(C)(=O)=O [Example 9, N-(2-Methoxy-5-(6-(2-methoxyphenyl)pyrimidin-4-ylamino)phenyl)methanesulfonamide]",< 1500 nM,> 1500 nM,,,
"COc1ccc(Nc2cc(-c3ccccc3OC)ncn2)cc1N [Example 41, 4-Methoxy-N1-(6-(2-methoxyphenyl)pyrimidin-4-yl)benzene-1,3-diamine]",60 nM,,good antiviral and antiproliferative activity and a good cytotoxicity profile,80 nM,
"COC(=O)c1cc(Nc2cc(-c3ccccc3OC)ncn2)ccc1O [Example 21, Methyl 2-hydroxy-5-(6-(2-methoxyphenyl)pyrimidin-4-ylamino)benzoate]",< 1500 nM,> 500 nM,,,
"COc1ccc(Nc2cc(-c3ccccc3OC)ncn2)cc1OC(=O)C(C)(C)C [Example 26, 2-methoxy-5-(6-(2-methoxyphenyl)pyrimidin-4-ylamino)phenyl pivalate]",,100 nM,good antiviral and antiproliferative activity and a good cytotoxicity profile,,100 nM
"COc1ccc(Nc2cc(-c3ccc(F)cc3OC)ncn2)cc1C(N)=O [Example 128, 5-[6-(4-Fluoro-2-methoxy-phenyl)-pyrimidin-4-ylamino]-2-methoxy-benzamide]",< 3 nM,,good antiviral and antiproliferative activity and a good cytotoxicity profile,30 nM,
"COc1ccc(Nc2cc(-c3ccccc3OC)ncn2)cc1CO [Example 24, (2-Methoxy-5-(6-(2-methoxyphenyl)pyrimidin-4-ylamino)phenyl)methanol]",> 500 nM,,,> 500 nM,
"CCOC(=O)c1cc(Nc2cc(-c3ccccc3OC)ncn2)ccc1N1CCOCC1 [Example 18, Ethyl 5-(6-(2-methoxyphenyl)pyrimidin-4-ylamino)-2-morpholinobenzoate]",> 1500 nM,> 500 nM,,,
"CCOc1ccc(Nc2cc(-c3ccccc3OC)ncn2)cc1C(N)=O [Example 111, 2-Ethoxy-5-[6-(2-methoxy-phenyl)-pyrimidin-4-ylamino]-benzamide]",7 nM,16 nM,good antiviral and antiproliferative activity and a good cytotoxicity profile,,
"COc1ccc(Nc2cc(-c3ccccc3OC)ncn2)cc1Cn1cnc2ccccc21 [Example 31, N-(3-((1H-Benzo[d]imidazol-1-yl)methyl)-4-methoxyphenyl)-6-(2-methoxyphenyl)pyrimidin-4-amine]",200 nM,,good antiviral and antiproliferative activity and a good cytotoxicity profile,350 nM,
"CNC(=O)c1cc(Nc2cc(-c3ccccc3OC)ncn2)ccc1OC [Example 25, 2-Methoxy-5-(6-(2-methoxyphenyl)pyrimidin-4-ylamino)-N-methylbenzamide]",> 500 nM,,,> 500 nM,
"COc1ccccc1-c1cc(Nc2ccc(F)c(Cn3cnc4ccccc43)c2)ncn1 [Example 40, N-(3-((1H-Benzo[d]imidazol-1-yl)methyl)-4-fluorophenyl)-6-(2-methoxyphenyl)pyrimidin-4-amine]",500 nM,> 200 nM,,,
"COc1ccccc1-c1cc(Nc2ccc(N3CCN(C)CC3)c(S(N)(=O)=O)c2)ncn1 [Example 38, 5-(6-(2-Methoxyphenyl)pyrimidin-4-ylamino)-2-(4-methylpiperazin-1-yl)benzenesulfonamide]",< 1500 nM,> 500 nM,,,
"COc1ccc(Nc2cc(-c3ccccc3OC(C)C)ncn2)cc1N [Example 79, N^1-[6-(2-Isopropoxy-phenyl)-pyrimidin-4-yl]-4-methoxy-benzene-1,3-diamine]",8 nM,< 80 nM,good antiviral and antiproliferative activity and a good cytotoxicity profile,,
"COc1cc(F)c(Nc2cc(-c3cc(F)ccc3OC)ncn2)cc1C(N)=O [Example 144, 4-Fluoro-5-[6-(5-fluoro-2-methoxy-phenyl)-pyrimidin-4-ylamino]-2-methoxy-benzamide]",< 3 nM,,good antiviral and antiproliferative activity and a good cytotoxicity profile,90 nM,

SMILES,IC50 [1],"IC50 (Primary T cells; primary T cells, mitotic index)",antiviral and antiproliferative activity and cytotoxicity profile (in words) [1],IC50 (Primary T cells),"IC50 ([1]; HIV-1 infected activated primary T cells, p24)"
"COc1cc(F)c(Nc2cc(-c3ccc(F)cc3OC)ncn2)cc1C(N)=O [Example 146, 4-Fluoro-5-[6-(4-fluoro-2-methoxy-phenyl)-pyrimidin-4-ylamino]-2-methoxy-benzamide]",< 3 nM,,good antiviral and antiproliferative activity and a good cytotoxicity profile,40 nM,
"COc1ccc(Nc2cc(-c3ccccc3OC)ncn2)cc1NS(=O)(=O)NC1CCCCC1 [Example 13, (2-Methoxy-5-(6-(2-methoxyphenyl)pyrimidin-4-ylamino)phenyl) (cyclohexylsulfamoyl)amine]",300 nM,600 nM,good antiviral and antiproliferative activity and a good cytotoxicity profile,,
"CCOc1ccc(Nc2cc(-c3ccc(F)cc3OC)ncn2)cc1C(N)=O [Example 112, 2-Ethoxy-5-[6-(4-fluoro-2-methoxy-phenyl)-pyrimidin-4-ylamino]-benzamide]",6 nM,< 3 nM,good antiviral and antiproliferative activity and a good cytotoxicity profile,,
"CCOc1ccc(Nc2cc(-c3ccccc3OC)ncn2)cc1Cn1cnc2ccccc21 [Example 39, N-(3-((1H-Benzo[d]imidazol-1-yl)methyl)-4-ethoxyphenyl)-6-(2-methoxyphenyl)pyrimidin-4-amine]",> 1000 nM,300 nM,,,
"COc1ccc(Nc2cc(-c3ccccc3OC)ncn2)cc1O [Example 32, 2-Methoxy-5-(6-(2-methoxyphenyl)pyrimidin-4-ylamino)phenol]",150 nM,70 nM,good antiviral and antiproliferative activity and a good cytotoxicity profile,,
COc1ccccc1-c1cc(Nc2ccc(N3CCN(C)CC3)c(CO)c2)ncn1 [Example 17],> 1500 nM,350 nM,,,
"CCOc1ccccc1-c1cc(Nc2ccc(OC)c(C(N)=O)c2)ncn1 [Example 129, 5-[6-(2-Ethoxy-phenyl)-pyrimidin-4-ylamino]-2-methoxy-benzamide]",10 nM,,good antiviral and antiproliferative activity and a good cytotoxicity profile,< 80 nM,
"COc1ccc(Nc2cc(-c3ccccc3OC)ncn2)cc1C(=O)NCc1ccncc1 [Example 28, 2-Methoxy-5-(6-(2-methoxyphenyl)pyrimidin-4-ylamino)-N-(pyridin-4-ylmethyl)benzamide]",> 500 nM,,,> 500 nM,
"CCOc1ccccc1-c1cc(Nc2cc(C(N)=O)c(OC)cc2F)ncn1 [Example 145, 5-[6-(2-Ethoxy-phenyl)-pyrimidin-4-ylamino]-4-fluoro-2-methoxy-benzamide]",30 nM,,good antiviral and antiproliferative activity and a good cytotoxicity profile,50 nM,
COc1ccc(Nc2cc(-c3ccc(F)cc3OC)ncn2)cc1N [Example 64],5000 nM,< 80 nM,good antiviral and antiproliferative activity and a good cytotoxicity profile,,
"COc1ccc(Nc2cc(-c3ccccc3OC)ncn2)cc1C=O [Example 29, 2-Methoxy-5-(6-(2-methoxyphenyl)pyrimidin-4-ylamino)benzaldehyde]",> 500 nM,> 500 nM,,,
"COc1ccc(Nc2cc(-c3ccccc3OC)ncn2)cc1CN [Example 43, N-(3-(Aminomethyl)-4-methoxyphenyl)-6-(2-methoxyphenyl)pyrimidin-4-amine]",,500 nM,good antiviral and antiproliferative activity and a good cytotoxicity profile,,
"COc1ccc(Nc2cc(-c3ccccc3OC)ncn2)cc1CNS(C)(=O)=O [Example 4, N-(2-Methoxy-5-(6-(2-methoxyphenyl)pyrimidin-4-ylamino)benzyl)methanesulfonamide]",,1500 nM,,,
"COc1ccccc1-c1cc(Nc2ccc(OC)c([N+](=O)[O-])c2)ncn1 [Example 11, N-(4-Methoxy-3-nitrophenyl)-6-(2-methoxyphenyl)pyrimidin-4-amine]",,> 1500 nM,,,
"COc1ccccc1-c1cc(Nc2ccc(Cl)c(C(N)=O)c2)ncn1 [Example 44, 2-Chloro-5-(6-(2-methoxyphenyl)pyrimidin-4-ylamino)benzamide]",,5000 nM,,,
